Results as given in PubChem BioAssay (NCI).
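These data come from cells grown in 96-well plates and exposed to compound for 48 hours at five concentrations. Abbreviation: GI50, concentration required for 50% inhibition of growth. TGI marks complete inhibition of growth.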

How the values were obtained:
Experiment in all cases: inhibition of tumour cell growth, NCI panel, 48 h
[1] = test system: 786-0 renal
[2] = test system: MCF7 breast
[3] = test system: DU-145 prostate
[4] = test system: SK-MEL-5 melanoma
[5] = test system: NCI/ADR-RES ovarian
[6] = test system: UO-31 renal
[7] = test system: HCC-2998 colon
[8] = test system: KM12 colon
[9] = test system: SK-OV-3 ovarian
[10] = test system: EKVX NSCLC

| Compound | GI50 [1] [µM] | TGI [1] [µM] | GI50 [2] [µM] | TGI [2] [µM] | GI50 [3] [µM] | TGI [3] [µM] | GI50 [4] [µM] | TGI [4] [µM] | GI50 [5] [µM] | TGI [5] [µM] | GI50 [6] [µM] | TGI [6] [µM] | GI50 [7] [µM] | TGI [7] [µM] | GI50 [8] [µM] | TGI [8] [µM] | GI50 [9] [µM] | TGI [9] [µM] | GI50 [10] [µM] | TGI [10] [µM] |
| --- | --- | --- | --- | --- | --- | --- | --- | --- | --- | --- | --- | --- | --- | --- | --- | --- | --- | --- | --- | --- |
| Cc1ccc(Cl)cc1Nc1nc(C(F)(F)F)ccc1C(=O)N/N=C/c1cccnc1 | 2.11 | 11.4 | 2.45 | 13.9 | 3.38 | 9.73 | 2.5 | 10.3 | 3.21 | 20.3 | 3.51 | 16.2 | 2.03 | 11.1 | 3.19 | 11.8 | 3.31 | 15.9 | 1.32 | 9.01 |
| CCOC(=O)c1ccc2c(c1)Cc1cc([N+](=O)[O-])ccc1-2 |  | > 100 |  | 71.2 |  | > 100 |  | 44.2 |  | 99.4 |  | > 100 |  |  |  | > 100 |  | > 100 |  | 50.6 |
| CN1CCC(COc2cnc(-c3cccc(Cn4nc(-c5cccc(C#N)c5)ccc4=O)c3)nc2)CC1 | 1.97 | 3.86 | 3.46 | 14.9 | 4.76 | 30.5 | 1.49 | 2.85 | 7.41 | 28.1 | 2.26 | 5.79 | 6.34 | 18.7 | 4.36 | 16.5 | 5.93 | 18.5 | 9.45 | 40 |
| CSC1=Nc2c(c(C)c(-c3ccccc3)n2CCCN2CCCCC2)C2=NC(=O)C[C@H](C)N12 | 4.48 | 36.5 | 2.72 | 11.3 | 4.01 | > 52.4 | 1.99 | 4.64 | 20 | 79.1 | 6.35 | 26 | 3.18 | 12.7 | 3.26 | 12.5 | 2.66 | 8.57 | 3.06 | > 44.7 |
| CSc1ccc(-c2ccccc(=O)c2O)cc1 | 0.447 | 12.6 | 0.322 | > 100 | 0.849 | > 100 | 0.413 | 5.05 | 0.278 | 2.12 | 0.351 | 5.2 | 0.594 | > 100 | 0.508 | > 100 | 0.551 | > 100 | 0.28 | 3.96 |
| C[C@]12CC[C@@H]3c4cc(OC(F)F)c(O)cc4CC[C@H]3[C@@H]1CC[C@@H]2OS(N)(=O)=O | 1.26 | > 100 | 0.566 | 47.1 | 1.55 | > 100 | 0.634 | 13.3 | 0.484 | 25.3 | 1.11 | 37.6 | 1.94 | 33.4 | 0.545 | 31 | 2.77 | 98 | 1.51 | > 100 |
| Nc1nc2c(ncn2C2CCC(CO)O2)c(=O)n1C(=O)c1ccccc1 (centres undefined) |  | > 100 |  | > 100 |  | > 100 |  | > 100 |  | > 100 |  | > 100 |  | > 100 |  | > 100 |  | > 100 |  | > 100 |
| COc1ccc(/C=C(/C(=O)N2CCN(c3ccccc3)CC2)c2cc(OC)c(OC)c(OC)c2)cc1N | 0.766 | > 100 | 0.326 | > 100 | 0.531 | > 100 | 0.386 | 10.9 | 0.623 | > 100 | 0.812 | > 100 | 0.556 | > 100 | 0.423 | > 100 | 0.472 | > 100 | 0.561 | > 100 |
| CC[C@H]1CN2CCc3cc(OC)c(OC)cc3C2C[C@@H]1CC1NCCc2cc(OC)c(OC)cc21 (some centres undefined) |  | 0.128 | 0.0146 | 1.22 |  | 0.105 |  | 0.0928 |  | 1.19 |  |  |  | 0.065 |  | 0.0986 |  | 0.292 |  | 0.136 |
| Cc1cc(=O)[nH]c(N/N=C/c2cc(Br)ccc2O)n1 | 2.35 | > 100 | 0.318 | 16.6 | 1.78 | > 100 |  |  | 0.35 | > 100 | 0.435 | 3.21 | 1.85 | > 100 | 0.869 | > 100 | 1.34 | > 100 | 1.82 | 7.67 |
| COC1=CC(c2ccc[nH]2)=N/C1=C\c1[nH]c(C)c(CC(=O)OCc2ccccc2)c1CCC(=O)OCc1ccccc1 | 0.376 | 1.53 | 0.372 | 5.5 | 0.438 | 12.1 |  |  | 0.579 | 3.37 | 0.21 | 0.577 |  |  | 0.367 | 2.26 | 0.523 | 3.11 | 0.349 | 4.13 |
| C=C(C)C1CC/C(C)=C/CCC2(C)OC2CC/C(CO)=C\C1O (centres undefined) |  | > 100 |  | > 100 |  | > 100 |  |  |  | > 100 |  | > 100 |  | > 100 |  | > 100 |  | > 100 |  | > 100 |
| Cc1c(O)c2ccccc2oc1=O |  | > 100 |  | > 100 |  | > 100 |  | > 100 |  | > 100 |  | > 100 |  | > 100 |  | > 100 |  |  |  | > 100 |
| C[n+]1c(/C=C/c2c[nH]c3ccccc23)ccc2ccccc21 | 14.2 | 30.3 | 2.16 | 34.1 | 10.1 | 22.7 | 6.15 | 19.6 | > 100 | > 100 | 11.3 | 30.4 | 10.5 | 23.8 | 4.61 | 22.3 | 14.7 | 90.8 |  |  |
